Laboratory results reported in patent publication US20210038547A1, “NEW USES AND APPLICATIONS OF DICARBOXYLIC ACIDS” (JEMYLL LIMITED, priority 2017, published 2021).

Legend:
[1] = system: Hy-Line Brown laying hens; assay: Laying hens fed a standard diet or a diet enriched with C12 (10%): egg productivity, egg quality, yolk cholesterol; assay type: in vivo
Description: Thirty Hy-Line Brown laying hens, 18 weeks of age, were free range-raised under natural light and dark cycle. The hens were divided into 2 groups and housed in different indoor pens (0.15 m^2/bird) equipped with feeders and drinkers, with access to open air runs (3 m^2/bird).
The diets were based on wheat and soybean meal with added dodecanedioic acid (C12) at 10% in the DAs diet, while they were free of dodecanedioic acid in the control diet. The diets were isocaloric and isonitrogenous containing 17.0% of crude protein (CP) and 2,680 kcal of metabolizable energy/kg of diet, in fact they were designed to meet or exceed the nutrient requirements for laying hens. The experimental diet was fed to the animals for 12 weeks. Feed and water were provided ad libitum throughout the entire trial.
Hens mortality or morbidity were recorded if occurred. Eggs were collected daily and egg production was calculated on per hen and per day basis. Eggs with any adhering manure were classified as dirty, and the percentage was then calculated.
Eggs were analyzed for interior and exterior physical quality, and were also examined for shell quality by specific gravity. Shell thickness (with shell membrane) of the eggs (10% of the daily egg produced) was measured by micrometer. Shell thickness was a mean value of measurements at 3 locations on the eggs (air cell; equator; and, sharp end). The breaking strength of untracked eggs was determined with a testing machine (model 1140, Instron Ltd., Bucks, UK). Egg components (albumen; yolk; and, shell) were measured by weekly breakouts on two eggs per replicate pen and expressed as percentage of egg weight.
Egg yolk color was scored using the 15-point scale (color scale from 15, dark orange to 1, light pale) of the DSM yolk color fan (DSM Nutritional Products Ltd., Basel, Switzerland).
The yolk cholesterol concentrations were determined by sampling weekly egg yolks (1 g) saponified with 20 ml of 33% ethanolic KOH in tightly-capped tubes placed in a 60° C. water bath for 1 hour. The mixture was then cooled in ice water, and 5 ml of distilled water was added. Cholesterol in unsaponifiable fractions was extracted twice with 5 ml of hexane. The resulting aliquot of hexane containing cholesterol was dried under nitrogen, re-dissolved in 5 ml of hexane, and injected into a gas chromatograph (Hewlett Packard, Palo Alto, Calif., Palo Alto, Calif., USA).
5 α-cholestane (Sigma-Aldrich) was used as an internal standard. A split inlet (using a split ratio of 100:1) was used to inject samples into a capillary column (HP-5, Agilent, Steven, Calif., USA; 30 m×0.53 mm×0.5 μm). Temperature conditions were as follows: […] oven temperature of 270° C. isothermal; detector temperature of 300° C.; and, inlet temperature of 210° C. The gas carrier was N2 kept at a constant flow rate of 1.0 ml/min.
Data were analyzed using the statistical package SPSS 13. Comparisons were made by the Mann Whitney U test since data were not normally distributed.

[2] = system: barley; assay: Hydroponic barley grown with C12 in the water medium: grain composition; conditions: 10 g C12/L of water (10% C12)
Method: (§1) Hydroponic barley and oat grass was growth in fodder sprouting chambers at 21.5 to 23.5° C., with humidity of 65±5% and water temperature between 20° and 22° C. Grains were soaked in water until fully saturated, then drained and placed in trays or troughs, to facilitate sprouting, for 5 to 8 days. The grains were kept moist during this period. Grains were initially washed with a sterilizing solution to help minimize the risk of mold. Grass were provided with […] from day 3. C12 (0.1% as acid, 14.9% as potassium salt, 60% as sodium salt, and 25% as calcium salt) was added to the water medium in different concentrations, varying from 0%, to 2.5%, 5%, 10%, 15% and 20%. We measured grain composition at 10 g C12 in 1 L of water.

[3] = system: oat; assay: Hydroponic oat grown with C12 in the water medium: grain composition; conditions: 10 g C12/L of water (10% C12)
Method: as §1

`O=C(O)CCCCCCCCCCC(=O)O` [C12, dodecanedioic acid] was tested, and the Yolk color ([1]; 10% C12 enriched diet vs standard diet) was “lighter color of the yolk”, the “Hen mortality or morbidity” value ([1]; 12 weeks of feeding) was “No hen mortality or morbidity was observed” and the “Dirty eggs (%)” value ([1]; diet with 10% C12 for 12 weeks) was 0.38 ± 0.14%. The “Egg mass (g/hen per day)” value ([1]; diet with 10% C12 for 12 weeks) was 54.56 ± 5.66 g/hen per day, the “Egg-laying rate (%)” value ([1]; diet with 10% C12 for 12 weeks) was 90.30 ± 4.99% and the Cholesterol content ([1]; diet with 10% C12 for 12 weeks, egg yolk, gas chromatography, FIG. 3: per 100 g of egg, in mg/100 g egg) was 87.00 ± 14.27. For the same molecule, the “Shell thickness (mm × 10^−2)” value ([1]; diet with 10% C12 for 12 weeks, mean of 3 locations, with shell membrane) was 0.38 ± 0.037 mm × 10^−2, the “content of C12 in a yolk” value ([1]; female, Hy-Line Brown, hen (chicken), in vivo, 12 weeks) was “in a yolk ranged between 0.35 and 2.1 mg” and the Ash % [2] was 3.40 ± 0.48%. The “Crude Fibre %” value [2] was 4.42 ± 0.38%, the “Crude Protein %” value [2] was 16.20 ± 0.62% and the “Dry matter (%)” value [2] was 90.40 ± 1.14%. For the same molecule, the Starch % [2] was 44.40 ± 3.51%, the Ash % [3] was 4.06 ± 0.59% and the “Crude Fibre %” value [3] was 23.40 ± 4.04%. The “Crude Protein %” value [3] was 18.70 ± 2.28%, the “Dry matter (%)” value [3] was 90.00 ± 5.70% and the Starch % [3] was 31.80 ± 8.11%.
